Measurements published in US10376499B2, “Combination therapy for treatment of resistant bacterial infections” (priority 2014, dated 2019).
Converted amounts (≈) assume the structure as drawn.

How the values were obtained:
Pseudomonas aeruginosa = test: MIC summary, 600 strains of Pseudomonas aeruginosa (Example 8); conditions: n = 600 strains; cmpd 1 and SUL each at 4 μg/mL where present
Acinetobacter baumannii = test: MIC summary, 600 strains of Acinetobacter baumannii (Example 8); conditions: n = 600 strains; cmpd 1 and SUL each at 4 μg/mL where present
A. baumannii [1] = test: MIC by broth microdilution (CLSI), panel of 60 A. baumannii clinical isolates (Example 1); conditions: Acinetobacter baumannii
A. baumannii [2] = test: MIC90 of common antibiotics+compound 1, 196 contemporary clinical isolates of A. baumannii (Example 4); conditions: B-lactam + Cmpd 1 (4 μg/mL)
A. baumannii [3] = test: MIC of sulbactam+compound 1 versus Unasyn®+compound 1 (Example 2); conditions: equivalent total amount of sulbactam in both combinations; FIG. 2
B. pseudomallei K96243 = format: in vivo, Burkholderia pseudomallei; conditions: Balb/c mice, lethal intranasal challenge; therapy from 4 hours post challenge for six consecutive days; FIG. 5

## C[C@@H](O)[C@H]1C(=O)N2C(C(=O)O)=C(S[C@@H]3CN[C@H](C(=O)N(C)C)C3)[C@H](C)[C@H]12 [Meropenem, meropenem]
Pseudomonas aeruginosa
  MIC50: 0.5
  MIC90: >8
Acinetobacter baumannii
  MIC50: >8
  MIC90: >8
  MIC Max: >8
  MIC Min: 0.0599
A. baumannii [1]
  MIC50: 16 µg/mL (≈ 41.7 µM)
  MIC90: 32 µg/mL (≈ 83.4 µM)
A. baumannii [1]; strain ARC593, OXA-98
  MIC: 1 µg/mL (≈ 2.61 µM)
A. baumannii [1]; strain ARC2058, OXA-95
  MIC: 0.25 µg/mL (≈ 0.652 µM)
A. baumannii [1]; strain ARC2461, OXA-66, TEM-1
  MIC: 2 µg/mL (≈ 5.22 µM)
A. baumannii [1]; strain ARC2462, TEM-1, OXA-66
  MIC: 4 µg/mL (≈ 10.4 µM)
A. baumannii [1]; strain ARC2598, OXA*, TEM-1, OXA-113
  MIC: 8 µg/mL (≈ 20.9 µM)
A. baumannii [1]; strain ARC2635, OXA-65, OXA-40, TEM-1
  MIC: > 32 µg/mL
A. baumannii [1]; strain ARC2636, OXA-65, OXA-40, TEM-1
  MIC: > 32 µg/mL
A. baumannii [1]; strain ARC2674, SHV-5, OXA-113
  MIC: 8 µg/mL (≈ 20.9 µM)
A. baumannii [1]; strain ARC2675, SHV-5, OXA-113
  MIC: > 32 µg/mL
A. baumannii [1]; strain ARC2681, OXA-40, TEM-1, OXA-132
  MIC: 32 µg/mL (≈ 83.4 µM)
A. baumannii [1]; strain ARC2682, SHV-5, OXA-113
  MIC: 32 µg/mL (≈ 83.4 µM)
A. baumannii [1]; strain ARC2777, OXA-172, TEM-1
  MIC: 32 µg/mL (≈ 83.4 µM)
A. baumannii [1]; strain ARC2778, OXA-40, TEM-1, OXA-65
  MIC: > 32 µg/mL
A. baumannii [1]; strain ARC2779 (A. baumannii/calcoaceticus complex), OXA-2, VIM-2
  MIC: 16 µg/mL (≈ 41.7 µM)
A. baumannii [1]; strain ARC2780 (A. baumannii/calcoaceticus complex), OXA*, OXA-2, IMP-1
  MIC: 32 µg/mL (≈ 83.4 µM)
A. baumannii [1]; strain ARC2782, OXA-66, OXA-23, TEM-1, PER-1
  MIC: 16 µg/mL (≈ 41.7 µM)
A. baumannii [1]; strain ARC2788, OXA-65, TEM-1
  MIC: 1 µg/mL (≈ 2.61 µM)
A. baumannii [1]; strain ARC3484, TEM-1, OXA-23, OXA-64
  MIC: 32 µg/mL (≈ 83.4 µM)
A. baumannii [1]; strain ARC3485, OXA-82
  MIC: 16 µg/mL (≈ 41.7 µM)
A. baumannii [1]; strain ARC3486, OXA-72, OXA-66, TEM-1
  MIC: > 32 µg/mL
A. baumannii [1]; strain ARC3487, OXA-20, OXA-58, OXA-66
  MIC: 8 µg/mL (≈ 20.9 µM)
A. baumannii [1]; strain ARC3488, OXA*, OXA-68
  MIC: 4 µg/mL (≈ 10.4 µM)
A. baumannii [1]; strain ARC3489, OXA*, OXA-68
  MIC: 4 µg/mL (≈ 10.4 µM)
A. baumannii [1]; strain ARC3490, TEM-1+, PSE-2, OXA-69
  MIC: 0.5 µg/mL (≈ 1.3 µM)
A. baumannii [1]; strain ARC3491 (A. baumannii/calcoaceticus complex), OXA-215
  MIC: 2 µg/mL (≈ 5.22 µM)
A. baumannii [1]; strain ARC3492, OXA-40, OXA-132, TEM-1
  MIC: > 32 µg/mL
A. baumannii [1]; strain ARC3493, OXA-40, OXA-66
  MIC: > 32 µg/mL
A. baumannii [1]; strain ARC3494, OXA-65
  MIC: 0.25 µg/mL (≈ 0.652 µM)
A. baumannii [1]; strain ARC3495, OXA-40, OXA-109
  MIC: > 32 µg/mL
A. baumannii [1]; strain ARC3513, TEM-1, OXA-23, OXA-65
  MIC: 32 µg/mL (≈ 83.4 µM)
A. baumannii [1]; strain ARC3515, OXA-64, OXA-58
  MIC: 4 µg/mL (≈ 10.4 µM)
A. baumannii [1]; strain ARC3657, OXA-130
  MIC: 2 µg/mL (≈ 5.22 µM)
A. baumannii [1]; strain ARC3658, OXA-66, PER-1, TEM-1, OXA-23
  MIC: 32 µg/mL (≈ 83.4 µM)
A. baumannii [1]; strain ARC3659, OXA-23, OXA*
  MIC: 8 µg/mL (≈ 20.9 µM)
A. baumannii [1]; strain ARC3882, OXA-23, NDM-1, OXA-10*
  MIC: > 32 µg/mL
A. baumannii [1]; strain ARC5073, OXA-23, TEM-1, OXA-64, PER-1
  MIC: > 32 µg/mL
A. baumannii [1]; strain ARC5074, GES*, TEM-1, OXA-51
  MIC: 8 µg/mL (≈ 20.9 µM)
A. baumannii [1]; strain ARC5075, SHV-5, OXA-113
  MIC: 32 µg/mL (≈ 83.4 µM)
A. baumannii [1]; strain ARC5076, TEM-1, OXA-23, OXA-66
  MIC: 32 µg/mL (≈ 83.4 µM)
A. baumannii [1]; strain ARC5077, OXA*, OXA-72
  MIC: > 32 µg/mL
A. baumannii [1]; strain ARC5079, OXA-72, OXA-65
  MIC: > 32 µg/mL
A. baumannii [1]; strain ARC5080, OXA-71, OXA-40
  MIC: > 32 µg/mL
A. baumannii [1]; strain ARC5081, OXA-94, OXA-23
  MIC: 16 µg/mL (≈ 41.7 µM)
A. baumannii [1]; strain ARC5082, OXA-66, OXA-23
  MIC: > 32 µg/mL
A. baumannii [1]; strain ARC5083, OXA-66, OXA-23
  MIC: 16 µg/mL (≈ 41.7 µM)
A. baumannii [1]; strain ARC5084, IMP-4(B), OXA-58, OXA-65
  MIC: > 32 µg/mL
A. baumannii [1]; strain ARC5085, OXA*, TEM-1
  MIC: 8 µg/mL (≈ 20.9 µM)
A. baumannii [1]; strain ARC5086, OXA*, TEM-1, OXA-72, OXA-66
  MIC: > 32 µg/mL
A. baumannii [1]; strain ARC5087, OXA-66, OXA-23
  MIC: 16 µg/mL (≈ 41.7 µM)
A. baumannii [1]; strain ARC5088, OXA-20, OXA-58, OXA-66
  MIC: 8 µg/mL (≈ 20.9 µM)
A. baumannii [1]; strain ARC5089, PER*, TEM-1, OXA-23, OXA-66
  MIC: 32 µg/mL (≈ 83.4 µM)
A. baumannii [1]; strain ARC5091, OXA-82, OXA-23
  MIC: 32 µg/mL (≈ 83.4 µM)
A. baumannii [1]; strain ARC5092, OXA-23, OXA-64
  MIC: 16 µg/mL (≈ 41.7 µM)
A. baumannii [2]
  MIC90: 16 µg/mL

## CC1(C)S[C@@H]2[C@H](NC(=O)[C@H](N)c3ccccc3)C(=O)N2[C@H]1C(=O)O [ampicillin]
A. baumannii [3]
  effect of ampicillin on efficacy (MIC of Unasyn®+compound 1 versus sulbactam+compound 1): no effect on the efficacy

## C[C@H]1c2cccc(O)c2C(=O)C2=C(O)[C@]3(O)C(=O)C(C(N)=O)=C(O)[C@@H](N(C)C)[C@@H]3[C@@H](O)[C@@H]21 [doxycycline]
B. pseudomallei K96243
  survivorship: 40%
